Experimental data as given in patent publication US20190113503A1 (priority 2016, published 2019).

Columns and labels:
KCB cells = conditions: 12-14 hours exposure
Experimental: The inventive cells were cryopreserved in a solution consisting of 10% DMSO and 10% FBS (fetal-bovine-serum) in MEM (minimum-essential-medium) at −80° C. The cells were thawed, washed with MEM and transferred to a 96 micro-well plate. In order to avoid evaporation of medium and consequent bias in MN frequency, the outer wells were left empty and the micro-well plate was sealed with duct tape. The inner wells were filled with cells in medium. The medium employed was composed of 86% MEM, 10% FBS, 1% non-essential-amino acids, 1% streptomycin (5 mg/ml in PBS—phosphate-buffered saline), 1% penicillin (3.125 mg/ml in PBS) and 1% amphotericin (250 μg/ml in deionized water). The cells were cultivated at 26° C. until they formed a moderately dense monolayer. The time until optimal monolayer density was achieved varied from two to five days.
Two untreated (i.e. not exposed to genotoxic compounds) columns served as internal (negative) controls of each plate.
It is possible, but not absolutely necessary, to replace the exposure medium by a recovery medium before the scoring. The scoring of micronuclei shall take place earliest 2 hours and latest 12 hours after the end of the exposure period.
In the basic test, a minimum of two pictures per well, corresponding to at least 24 pictures per concentration or control, were taken under a fluorescence microscope with an objective magnification of 40×. Normal cell nuclei, MN and fragmented nuclei in each picture were counted visually with aid of the “Cell Counter” plugin from the public domain image processing software “ImageJ”. Finally, the frequencies of MN per concentration were calculated.

[1] = system: carp (Cyprinus carpio) erythrocytes; conditions: fish injected with 0.4 mg colchicine/kg body weight; background 2%; cited from earlier work
human lymphocytes = conditions: colchicine 0.06 μM, 24 hours; controls 1%; cited from earlier work
human skin fibroblasts = conditions: colchicine 20 ng/mL (around 0.05 μM), 72 hours; background 0.2-0.9%; cited from earlier work

With `O=[N+]([O-])c1cc[n+]([O-])c2ccccc12` [4NQO, 4-Nitroquinoline 1-oxide] the “concentrations at which a cytotoxic threshold may have been achieved (MN frequency diminishing or stabilizing)” value (KCB cells) was ≥ 600 nM.
In the case of `COc1cc2c(c(OC)c1OC)-c1ccc(OC)c(=O)cc1[C@@H](NC(C)=O)CC2` [colchicine], the MN frequency [1] is listed as “around 10%”, the “concentrations at which a cytotoxic threshold may have been achieved (MN frequency diminishing or stabilizing)” value (KCB cells) is listed as “higher than 0.188 μM” and the “maximal MN frequency” value (KCB cells; colchicine at 0.375 μM) is listed as 1.77%. The “maximal frequency of fragmented nuclei” value (KCB cells; colchicine at 0.5 μM) was 6.85%, the MN frequency (human lymphocytes) was “around 15.2%” and the MN frequency (human skin fibroblasts) was “up to 4.7%”.
